{
  "source": "patent US11976280B2",
  "about": "“SMAC/Diablo inhibitors useful for treating cancer” (THE NATIONAL INSTITUTE FOR BIOTECHNOLOGY IN THE NEGEV LTD., priority 2017, dated 2024)",
  "key": {"[1]": {"test_system": "A549-derived xenograft tumors", "experiment": "TUNEL and q-PCR of apoptosis-associated genes in A549-derived xenograft tumors", "assay_type": "in vivo, mice", "procedure": "Total RNA was isolated from cells using an RNeasy mini kit (Qiagen) according to the manufacturer's instructions. Complementary DNA was synthesized from 1 μg total RNA using a Verso cDNA synthesis kit (Thermo Scientific). q-PCR was performed using specific primers (KiCqStart Primers; Sigma Aldrich) in triplicates, using Power SYBER green master mix (Applied Biosystems, Foster City, CA). The levels of the target genes were normalized relative to β-actin mRNA levels. Samples were amplified by a 7300 Real Time PCR System (Applied Biosystems) 95° C. for 2 minutes and for 40 cycles using the following PCR parameters: 95° C. for 15 seconds, 60° C. for 1 minute, and 72° C. for 1 minute. The copy numbers for each sample were calculated by the CT-based calibrated standard curve method. The mean fold changes (±SEM) of the three replicates were calculated.\nTumor sections were processed for the TUNEL assay using the DeadEnd Fluorometric TUNEL system (Promega, Madison, WI) according to the manufacturer's instructions. […]\nAs SMAC/Diablo released from mitochondria during apoptosis binds to and counters the activities of IAPs leading to the release of bound caspases (Verhagen, A. M., et al. 2000. Cell 102, 43-53), the expression levels of XIAP1, cIAP1, and cIAP2, as well as of pro-apoptotic proteins including caspases 3, 8, and 9, Cyto c, and AIF were analyzed."}, "HeLa, A549 or H358 cells": {"test_system": "HeLa, A549 or H358 cells", "experiment": "Cell death analysis, PI / FITC-Annexin V staining and flow cytometry", "assay_type": "cell-based, human", "conditions": "cells silenced for SMAC/Diablo; no significant cell death", "procedure": "Cells death was analyzed by propidium iodide (PI) staining and flow cytometer (Beckton-Dickinson, San Jose, CA) and BD CellQuest Pro software, or using acridine orange ethidium bromide staining (Abu-Hamad, S., et al., 2009. J Cell Sci, 122(Pt 11): p. 1906-1916).\nMoreover, apoptosis was induced by over-expressing SMAC/Diablo or SMAC/Diablo-GFP in HeLa, A549 and H358 cells in a concentration- and time-dependent manner, again as expected (FIG. 3D-3F)."}, "WI38 and HaCat cells": {"test_system": "WI38 and HaCat cells", "experiment": "SRB cell growth assay, immortalized non-cancerous cell lines", "assay_type": "cell-based, human", "procedure": "The siRNAs were synthesized by Genepharma (Suzhou, China). Cells were seeded (150,000 cells/well) on 6-well culture dishes to 40-60% confluence and transfected with 10-100 nM si-NT or si-hSMAC/Diablo using the JetPRIME transfection reagent (Illkirch, France), according to the manufacturers' instructions.\nTwenty-four hours post-transfection with si-NT or si-hSMAC, cells (10,000/well) were counted and seeded in 96-well plates. After additional 48, 72 or 96 hours, the cells were washed with PBS, fixed with 10% trichloroacetic acid, and stained with SRB. SRB was extracted from the cells using 100 mM Tris base and absorbance at 510 nm was determined using an Infinite M1000 plate reader (Tecan, Männedorf, Switzerland).\nThe effect of the SMAC/Diablo silencing on cell growth was examined using the sulforhodamine B (SRB) assay. […] Three other siRNAs designed to target hSMAC (B to D as described hereinabove) were also found to inhibit SMAC/Diablo expression and cell growth to various degrees (FIG. 2I, 2J)."}},
  "note": "d = 2'-deoxy (DNA); r = 2'-OH (RNA)",
  "data": [
    {"substance": "si-hSMAC-A: siRNA to human SMAC/Diablo; sense 5′AAGCGGUGUUUCUCAGAAUUGtt3′ (SEQ ID NO:20), antisense 5′AACAAUUCUGAGAAACCCGCtt3′ (SEQ ID NO:21) (sense AAGCGGUGUUUCUCAGAAUUGTT; antisense AACAAUUCUGAGAAACCCGCTT; sense: sugars from the 5' end r21 d2, backbone not given here; antisense: sugars from the 5' end r20 d2, backbone not given here)", "values": [
      {"measurement": "apoptosis, TUNEL staining", "setting": "[1]; mouse, in vivo", "result": "lack of significant apoptosis"},
      {"measurement": "mRNA expression levels of XIAP1, cIAP1, cIAP2, caspases 3, 8, 9, Cyto c, AIF", "setting": "[1]; q-PCR", "result": "noticeably decreased"},
      {"measurement": "cell death", "setting": "HeLa, A549 or H358 cells", "result": "5-10%"},
      {"measurement": "cell growth of non-cancerous cell lines", "setting": "WI38 and HaCat cells", "result": "did not affect cell growth"}
    ]}
  ]
}
